Legend:
[1] = Stability and solution appearance of DP-BFA; type: physicochemical
Procedure: (§1) DP-BFA is stored in a hermetically sealed dark vial filled with Argon at 5° C. for up to 3 months. The drug quantity was taken out the vial cap with a Teflon spatula. The compound was dissolved in sodium carbonate-sodium bicarbonate buffered saline solution adjusted to pH 8.8-9 at 37° C. A stock solution (12.8 mg/ml) was prepared and kept at 37° C. for 15 minutes. The solution was protected from light by covering it with aluminium foil. […] The desired concentration of DP-BFA was obtained by diluting the stock solution with the buffer. The solutions were filtered through a […] filter. The DP-BFA solutions were kept at 37° C. in vials protected from light, for no more than 6 hours.

[2] = system: bovine brain capillary endothelial cells in co-culture with astrocytes; assay: Paracellular permeability (inulin and sucrose clearance), in vitro coculture model of the BBB; type: cell-based
From the text: The alterations in barrier function on bovine brain capillary endothelial cells in co-culture were investigated. To provide an "in vitro" system for studying brain capillary functions, a process of coculture was used that closely mimics the "in vivo" situation by culturing brain capillary endothelial cells on one side of a filter and astrocytes on the other (Dehouck, et al. (1992) J. Neurochemistry 58:1790-1797). Endothelial cells form a confluent monolayer in 12 days.
Endothelial cells are cultured in the upper compartment on the filter and astrocytes in the lower compartment on the plastic of the Petri dish.
Under these conditions, endothelial cells retain all the endothelial markers (factor VIII--related antigen, nonthrombogenic surface, production of prostacyclin, angiotensin converting enzyme activity) and the characteristics of the blood-brain barrier (presence of tight junctions, paucity of pinocytotic vesicles, monoamine oxidase activity, γ-glutamyltranspeptidase activity).
Two different time points were tested, namely 1 hr and 24 hrs of incubation with DP-BFA, and five different concentrations per time point: 0.04; 0.08; 0.16; 0.24; 0.32 mg/ml corresponding to 0.125; 0.25; 0.5; 0.75; 1×10^-3 M.
as §1
Stock solution of DP-BFA was added directly to the coculture medium (upper compartment) in order to obtain a dilution of 1:40.
Permeability studies were carried out on the monolayer of endothelial cells, using two paracellular tracers: inulin-^3 H and sucrose-^14C.
To obtain a concentration-dependent transport parameter, the clearance principle was used. For each time, the increment in cleared volume between successive sampling events was calculated by dividing the amount of transported solute by the donor chamber concentration. The total volume cleared at each point was calculated by summing the incremental cleared volumes up to the given time point: [formula]
where [C]L is the initial luminal tracer concentration, [C]A the abluminal tracer concentration, and VA the volume of the abluminal chamber. During the 45-mim experiment, the clearance volume increased linearly with time. The average volume cleared was plotted versus time, and the slope was estimated by linear regression analysis to give the mean and the SE to the estimate. The slope of the clearance curves for the coculture was denoted PSt, where PS is the permeability x surface area product (in microliters per minute). The slope of the clearance curve for the control filter was denoted PSf.
The PS value for the endothelial monolayer (PSe) was calculated from [formula]
The PSe values were divided by the surface area of the Millicell-PC (4.2 cm^2) to generate the endothelial permeability coefficient (Pe, in centimeters per minute).
In that case, the results are presented as clearance (μl) in function of time (min) and clearance at 45 minutes for each condition.

[3] = system: bovine brain capillary endothelial cells (actin filaments); assay: Actin staining of endothelial cells (fluorescent microscopy); type: cell-based
Procedure: To investigate the origin of this modification of the permeability, fluorescent microscopy studies were undertaken. Actin filaments were localized with bodipy phallo?din (explanations in section 7.1.).
The medium was removed and filter-grown endothelial cells were washed gently twice with Ringer-Hepes buffer.
Filter-grown endothelial cells were fixed in 4% PAF (paraformadehyde, in PHS buffer supplemented with MgCl2, 2 mM and EGTA, 10 mM) for 15 min at 4° C.
PAF was removed and filter-grown endothelial cells were washed once with PHEMS buffer. The filter-grown endothelial cells can be stored in PHEMS buffer at 4° C.
The filter-grown endothelial cells were cut up in eight pieces in a large PHEMS buffer drop and stored in PHEMS. One piece was permeabilized with acetone at -20° C. for 1 min then stored in PHEMS buffer.
Actin filaments were localized with bodipy phallo?din (Molecular Probes, Inc.). The stain was dissolved in 1.5 ml of methanol (200 units/ml) but was used at 5 units/ml. 5 μl of stock solution was evaporated and redissolved in 200 μl of PHS buffer.
1/8 of permeabilized filter-grown endothelial cells was covered with 25 to 50 μl of stain solution, 30 min at room temperature in darkroom. The filter bearing the endothelial cells was rinsed twice with PHEMS buffer, once with water.
The filter-grown endothelial cells were mounted cell-side up on a microscope slide in mowiol. And was examined on a Leitz DMR microscope using oil immersion objectives.

[4] = system: ipsilateral hemisphere of the brain; assay: Methotrexate content of brains of rats pretreated with M3,14 (DP-BFA); type: in vivo, rat; conditions: intra-arterial pre-treatment, carotid artery
[5] = system: rats; conditions: rat, in vivo
[6] = system: rat brain; assay: Water concentration in the rat brain after intra-arterial administration (cerebral edema); type: in vivo; conditions: 20 μg/ml, 24 h
Procedure: The rats were treated by intraarterial infusion of M 3/14 20 μg/ml or phosphate buffered saline as control. After 24 hours the rats were decapitated, the brain was removed and dried at 110° C. until constant weight was achieved (normally three days). The percent water was calculated by the following equation:
% water=(wet sample weight-dry sample weight)×100/(wet sample weight)
This procedure is according to Karpiak and Mahadik (1984, J. Neurosci. Res. 12, 485-492).

[7] = 0.08 mg/ml, 24 hours incubation

With `CCCCCCCCCCCCCCC(CCC)C(=O)O` (stereo not shown) [M 3/14, 2-propylhexadecanoic acid] the “appearance of stock solution” value ([1]; 12.8 mg/ml, carbonate-bicarbonate buffered saline, pH 8.8-9, 37° C.) was “completely transparent”, the “stability (sensitivity to light, CO2)” value ([1]; white powder, sodium salt) was “sensitive to light and atmospheric CO2” and the “increase in permeability of the monolayer for inulin (clearance at 45 minutes)” value [2, 7] was 179%. For the same compound, the “increase in permeability of the monolayer for sucrose (clearance at 45 minutes)” value [2, 7] was 199%, the “paracellular breakdown (opening of the tight junctions)” value ([2]; 0.08 mg/ml, 24 hrs) was “paracellular breakdown (opening of the tight junctions)” and the “increase in permeability of the monolayer for inulin (clearance at 45 minutes)” value ([2]; 0.16 mg/ml, 1 hour incubation) was 636%. For the same compound, the “increase in permeability of the monolayer for sucrose (clearance at 45 minutes)” value ([2]; 0.16 mg/ml, 1 hour incubation) was 679%, the “paracellular breakdown (opening of the tight junctions)” value ([2]; 0.16 mg/ml, 1 hr) was “paracellular breakdown (opening of the tight junctions)” and the endothelial cell morphology ([3]; 0.08 mg/ml, 24 hrs) was “significant morphological changes”. The “stress fibers (actin staining)” value ([3]; 0.08 mg/ml, 24 hrs) was “increase in numerous densely packed stress fibers”, the “stress fibers (actin staining)” value ([3]; 0.16 mg/ml 1 hr, then 24 hrs without DP-BFA) was “less densely packed stress fibers” and the endothelial cell morphology ([3]; 0.16 mg/ml, 1 hr) was “significant morphological changes”. For the same compound, the “stress fibers (actin staining)” value ([3]; 0.16 mg/ml, 1 hr) was “increase in numerous densely packed stress fibers”, the interendothelial cell gaps ([3]; 0.16 mg/ml, 24 hrs) was “Interendothelial cell gaps in the monolayer could be seen” and the “penetration of MTX into the ipsilateral hemisphere” value [4] was “significantly increased the penetration of MTX”. For the same compound, the “brain edema or general edema” value [5] was “no brain edema or general edema was observed”, the change of behavior [5] was “No change of behavior was observed” and the cerebral edema [6] was “no cerebral edema effect”. For the same compound, the “water content of brain, treated vs non treated rats” value [6] was “no significant difference”, the Brain weight ([6]; intra-arterial) was 1.494 g and the “Brain weight after drying” value ([6]; intra-arterial) was 0.311 g. It also gave a Water ([6]; intra-arterial) of 79.19%.
